Measured values published in US9169269B2, “Water-soluble solid pharmaceutical inclusion complexes and their aqueous solutions for oral, ophthalmic, topical or parenteral use containing a macrolide and certain cyclodextrins” (EUTICALS SPA, priority 2010, dated 2015).

Tests used:
Type in all cases: physicochemical
[1] = Stability of Everolimus gamma CD complex versus amorphous Everolimus (powder) at 60° C., total impurities (HPLC); conditions: powder 60° C.
Protocol: For the HPLC determination of the chromatographic purity of Temsirolimus and Everolimus: Column: Zorbax SB-C18; 3.5 μm (75×4.6 mm), Precolumn: Symmetry Shield RP18; 5 μm (20×3.9 mm).
Mobile Phase composition: • Component A: 900 ml of water, 100 ml of acetonitrile and 50 μl of 50% aqueous acetic acid • Component B: 1000 ml of acetonitrile and 50 μl of 50% aqueous acetic acid Gradient elution: […]
Flow rate: 1 ml/min. Column temperature: 60° C. Volume of injection: 20 μl.
Sample preparation: solution of 0.5 mg/ml in acetonitrile. Detector UV: 278 nm
The stability data on Everolimus complex with CD prepared according each of the examples 2 and 3 are reported on FIG. 3 and on Table 7.
In particular, in FIG. 3, are reported the sum of the related by products originated by degradation (HPLC data in area %) during a stability tests performed on the powder at 60° C. for 96 hours.

[2] = Stability of amorphous and crystalline Rapamycin at 60° C. (HPLC chromatographic purity); conditions: for decrease of chromatographic purity: after 408 hours (17 days)
Protocol: For the HPLC determination of chromatographic purity of Rapamycin: Column: Thermo BDS Hypersil C18; 3 μm (100×4.6 mm). Mobile Phase composition: isocratic elution • Component A: 50% acetonitrile • Component B: 50% ammonium acetate buffer pH 5.8 (concentration 0.8 g/l of ammonium acetate; the final pH value was brought to a final value of 5.8 with glacial acetic acid)
Flow rate: 1.0 ml/min. Column temperature: 55° C. Volume of injection: 100 μl.
Sample solution: weight 25 mg of Rapamycin and dissolve in 100 ml of acetonitrile/water 1/1 v/v (final concentration 0.25 mg/ml). UV detector: 278 nm

[3] = Preliminary stability tests on micronized Rapamycin and in solution (ethanol); conditions: finely micronized (10^−5 microns) and in solution (ethanol), within few hours
Description: In order to proceed with formulative studies we have performed preliminary stability tests on micronized Rapamycin (10^−5 microns) and in solution (ethanol).

HPLC area % of total impurities ([1]; 0 hours) [area %] | HPLC area % of total impurities ([1]; 24 hours) [area %] | HPLC area % of total impurities ([1]; 48 hours) [area %] | HPLC area % of total impurities ([1]; 72 hours) [area %] | HPLC area % of total impurities ([1]; 96 hours) [area %] | HPLC area % of total impurities ([1]; 168 hours) [area %] | chromatographic purity (HPLC data) ([2]; 0 hours) [area %] | chromatographic purity (HPLC data) ([2]; 20 hours) [area %] | chromatographic purity (HPLC data) ([2]; 96 hours) [area %] | chromatographic purity (HPLC data) ([2]; 168 hours) [area %] | chromatographic purity (HPLC data) ([2]; 408 hours) [area %] | decrease of chromatographic purity [2] | decrease in the assay value [3] [%] | Structure (SMILES)
1.5 | 2.44 | 4.52 | 7.1 | 9.2 | 14.1 | – | – | – | – | – | – | – | CO[C@H]1C[C@@H]2CC[C@@H](C)[C@@](O)(O2)C(=O)C(=O)N2CCCC[C@H]2C(=O)O[C@H]([C@H](C)C[C@@H]2CC[C@@H](OCCO)[C@H](OC)C2)CC(=O)[C@H](C)/C=C(\C)[C@@H](O)[C@@H](OC)C(=O)[C@H](C)C[C@H](C)/C=C/C=C/C=C/1C [Amorphous Everolimus, Everolimus]
– | – | – | – | – | – | 98.90 | 93.00 | 90.00 | 88.00 | 84.90 | −14% | – | CO[C@H]1C[C@@H]2CC[C@@H](C)[C@@](O)(O2)C(=O)C(=O)N2CCCC[C@H]2C(=O)O[C@H]([C@H](C)C[C@@H]2CC[C@@H](O)[C@H](OC)C2)CC(=O)[C@H](C)/C=C(\C)[C@@H](O)[C@@H](OC)C(=O)[C@H](C)C[C@H](C)/C=C/C=C/C=C/1C [Amorphous Rapamycin, Rapamycin]
– | – | – | – | – | – | 99.10 | 99.10 | 99.10 | 99.00 | 99.00 | the same chromatographic purity | – | CO[C@H]1C[C@@H]2CC[C@@H](C)[C@@](O)(O2)C(=O)C(=O)N2CCCC[C@H]2C(=O)O[C@H]([C@H](C)C[C@@H]2CC[C@@H](O)[C@H](OC)C2)CC(=O)[C@H](C)/C=C(\C)[C@@H](O)[C@@H](OC)C(=O)[C@H](C)C[C@H](C)/C=C/C=C/C=C/1C [Crystalline Rapamycin, Rapamycin]
– | – | – | – | – | – | – | – | – | – | – | – | −10 | CO[C@H]1C[C@@H]2CC[C@@H](C)[C@@](O)(O2)C(=O)C(=O)N2CCCC[C@H]2C(=O)O[C@H]([C@H](C)C[C@@H]2CC[C@@H](O)[C@H](OC)C2)CC(=O)[C@H](C)/C=C(\C)[C@@H](O)[C@@H](OC)C(=O)[C@H](C)C[C@H](C)/C=C/C=C/C=C/1C [Rapamycin]
